Patent publication US9351944B1, “Malodor eliminating compositions” (TAKASAGO INTERNATIONAL CORPORATION, priority 2008, dated 2016)
Several values for one entry are separate records, joined by “and”; a condition that tells them apart may be missing. Identical values can stand only once.

Legend:
[1] = Methyl mercaptan chemical suppression by Group A and Group B compounds (GC-PFPD); details: test material 200 ppm, malodor material 10 ppm, room temperature 2 hours, ethanol/deionized water
Description: 2 μl of 0.5%(w/v) of sodium methoxide in deionized water, 20 μl of 1% (w/v) test malodor eliminating material in ethanol, 80 μl of ethanol, and 900 μl of deionized water were added into a 2 ml GC vial, left to sit at room temperature for 2 hours, and analyzed using Multipurpose sampler-GC-PFPD (Gas Chromatography-Pulsed Flame Photometric Detector) (GC-PFPD)MPS2 (Gerstel)—GC; 6890N (Agilent)—PFPD; model 5380 (OI Analytical). As a control, ethanol was added instead of test malodor eliminating materials. The final concentration of test OE material and malodor material are 200 ppm and 10 ppmm, respectively. Malodor suppression was calculated as follows: Malodor Suppression (%)=(GC area of control sample−GC area of test_sample)/GC area of control sample×100

[2] = Methyl mercaptan suppression by Group A and Group B materials alone and combined (synergistic or additive activity); details: in ethanol, room temperature 2 hours; for methyl mercaptan suppression (%) B alone: Group B level 400 ppm
Description: The synergistic or additive activity of methyl mercaptan inhibition of malodor eliminating materials was tested. 5-40 μl of 1% (w/v) test OE materials in ethanol was placed into a 2 ml GC vial. Ethanol was added into this vial up to 1000 μl. 2 μl of 0.5%(w/v) of sodium methoxide in deionized water was added into the resulting vial, left to sit at room temperature for 2 hours, and analyzed using Multipurpose sampler-GC-PFPD. As a control, ethanol was added instead of test OE materials. Malodor suppression was calculated as described in Example 1 above.

[3] = Propyl mercaptan chemical suppression by malodor eliminating materials (GC-PFPD); details: OE material 0.2%, malodor material 10 ppm, room temperature 2 hours, triplicate
Description: (§1) The selected OE materials were tested for propyl, allyl, and furfuryl mercaptan suppression. 100 μl of 0.01%(w/v) of test malodor material in ethanol, 2 μl of neat flavor oil and 900 μl of deionized water were added into a 4 ml vial and left to sit at room temperature for 2 hours. As a control, ethanol was added instead of test flavor materials. The final concentration of test OE material and malodor material are 0.2% and 10 ppm, respectively. 3 ml of ethanol was added into the resulting vial and the thiol level was analyzed using GC-PFPD. Each material was tested in triplicate. Malodor suppression was calculated as described in the example 1 above.

[4] = Allyl mercaptan chemical suppression by malodor eliminating materials (GC-PFPD); details: OE material 0.2%, malodor material 10 ppm, room temperature 2 hours, triplicate
Description: as §1

[5] = Furfuryl mercaptan chemical suppression by malodor eliminating materials (GC-PFPD); details: OE material 0.2%, malodor material 10 ppm, room temperature 2 hours, triplicate
Description: as §1

[6] = Suppression of methyl mercaptan (Example 12, GC-PFPD); details: test material 0.2%, malodor material 10 ppm, room temperature 2 hours, triplicate
Description: 100 μl of 0.01%(w/v) of test malodor material in ethanol, 2 μl of neat flavor oil and 900 μl of deionized water were added into a 4 ml vial and left to sit at room temperature for 2 hours. As a control, ethanol was added instead of the malodor reducing compound. The final concentration of test material and malodor material are 0.2% and 10 ppmm, respectively. 3 ml of ethanol was added into the resulting vial and the thiol level was analyzed using GC-PFPD as described above. Each material was tested in triplicate. Malodor suppression was calculated as described in the example 1 above.

Molecule	methyl mercaptan suppression (%) [1]	methyl mercaptan suppression (%) [6]	also measured
C/C=C/C(=O)OCC [ETHYL-TRANS-2 BUTENOATE, ethyl-trans-2-butenoate]	73%	–	methyl mercaptan suppression (%) A alone ([2]; Group A level 200 ppm): 64%
C/C=C/C(=O)C1=C(C)C=CCC1(C)C [DAMASCENONE, damascenone]	100%	81%	Malodor reduction (%) propyl mercaptan [3]: 49%; Malodor reduction (%) allyl mercaptan [4]: 67%; Malodor reduction (%) furfuryl mercaptan [5]: 67%; methyl mercaptan suppression (%) A alone ([2]; Group A level 50 ppm): 28% and 17%
CCCCCCCC1CCCC(=O)O1 (stereo not drawn) [DODECALACTONE DELTA, dodecalactone delta]	–	<20%	–
CC(=O)c1ccccc1 [ACETOPHENONE, acetophenone]	–	–	methyl mercaptan suppression (%) A alone ([2]; Group A level 200 ppm): 4%
CC/C=C/C=C/C=O [HEPTADIENAL, TRANS-2-TRANS-4]	44%	–	–
C=C(C)C1CC=C(C=O)CC1 (stereo not drawn) [PERILLA ALD]	12%	–	methyl mercaptan suppression (%) A alone ([2]; Group A level 200 ppm): 16%
CC(C)CC=C(C=O)c1ccccc1 [METH 2-PHEN 2-HEXENAL, 5,]	59%	–	–
CCCCC/C(C=O)=C/c1ccccc1 [AMYL CINN ALD, ALPHA]	5%	–	methyl mercaptan suppression (%) A alone ([2]; Group A level 200 ppm): −3% and −1%
CCCCCCCC(C)=O [METHYL HEPTYL KETONE]	–	<20%	–
CCC/C=C/C=O [HEXENAL, TRANS-2,, trans-2-hexenal]	82%	–	methyl mercaptan suppression (%) A alone ([2]; Group A level 200 ppm, TRANS-2): 33%
CCCCCCC/C=C/C=O [DECENAL, TRANS-2,]	90%	–	–
CC=Cc1ccc(OC)cc1 [ANETHOL NF, anethol]	–	<20%	–
CCCC(=O)OCC [ETHYL BUTYRATE, ethyl butyrate]	–	<20%	–
CC=Cc1ccc(O)c(OC)c1 [ISOEUGENOL, isoeugenol]	15%	–	–
CCOC(=O)C(C)CC (stereo not drawn) [ETHYL 2-METHYLBUTYRATE, ethyl 2-methylbutyrate]	–	<20%	–
CC(C)=CCCC(C)=CC=O [CITRAL SYN REFINED (FDO), CITRAL]	25%	–	methyl mercaptan suppression (%) A alone ([2]; Group A level 200 ppm): 1% and 0%
CCOC(C)=O [ETHYL ACETATE, ethyl acetate]	–	<20%	–
COC(=O)C=Cc1ccccc1 [METH CINNAMATE, methyl cinnamate]	36%	–	–
COC(=O)c1ccccc1O [METHYL SALICYLATE EXT PURE, METHYL SALICYLATE]	–	<20%	–
CCCCCCCCC/C=C/C=O [DODECENAL, TRANS-2,]	53%	–	–
CC/C=C\CC1=C(C)CCC1=O [JASMONE, CIS]	32%	–	–
CC(=O)/C=C/C=C(C)C [METHYL HEPTADIENONE, methyl heptadienone]	–	–	methyl mercaptan suppression (%) A alone ([2]; Group A level 200 ppm): 12% and 6% and 8% and 15%
CCOC(=O)C=Cc1ccccc1 [ETH CINNNAMTE, ethyl cinnamate]	50%	–	methyl mercaptan suppression (%) A alone ([2]; Group A level 200 ppm): 12% and 8%
CC(=O)OC1CC(C)CCC1C(C)C (stereo not drawn) [MENTHYL ACETATE]	–	<20%	–
C/C=C(\C)C(=O)OCCc1ccccc1 [PHEN ETH TIGLATE]	–	–	methyl mercaptan suppression (%) A alone ([2]; Group A level 200 ppm): 4%
CC/C=C\CCOC(=O)CC(C)C [HEXENYL ISO VAL, CIS-3,]	24%	–	–
CC(O)CO (stereo not drawn) [PROPYLENE GLYCOL (SOLVENT), propylene glycol]	–	–	methyl mercaptan suppression (%) B alone [2]: −5%

Molecule	methyl mercaptan suppression (%) [1]	methyl mercaptan suppression (%) [6]	also measured
CC/C=C\CCOC(=O)CCC [HEXENYL BUTY, CIS-3,]	22%	–	–
CC/C=C\CCOC(=O)CC [HEXENYL PROP, CIS-3,]	32%	–	–
CCC/C=C/COC(C)=O [HEXENYL-TRANS-2 ACETATE]	35%	–	–
CC1=CC(=O)CC(C)(C)C1 [ISOPHORONE]	31%	–	–
CCCCCC=CCC(=O)OC [METHYL-3 -NONENOATE, METHYL-3-NONENOATE]	36%	–	methyl mercaptan suppression (%) A alone ([2]; Group A level 200 ppm): 7%
CCC/C=C/CO [HEXENOL, TRANS-2-, trans-2-hexenol]	29%	–	–
CC(C)OC(=O)C=Cc1ccccc1 [ISOPROPYL CINNAMATE]	21%	–	–
CCC(=O)OCCc1ccccc1 [PHENYLETHYL PROPIONATE, phenyl ethyl propionate]	–	<20%	–
CCCC/C=C/C=C/C=O [NONADIENAL-TRANS-2-TRANS-4, trans-2-trans-4-nonadien-1-al]	42%	–	–
Cc1ccc(C(C)C)c(O)c1 [THYMOL, thymol]	–	–	methyl mercaptan suppression (%) B alone [2]: 0%
CC/C=C\CCCCCO [NONENOL, CIS 6]	22%	–	–
CC/C=C\CC/C=C/C=O [NONADIEN-1-AL, TRANS-2, CIS-6,]	74%	–	–
C=CC(O)CCCCC (stereo not drawn) [OCTEN-1 3-OL]	19%	–	–
O=C1CCCCCCCCCCCCCCO1 [CYCLOPENTADECANOLIDE, cyclopentadecanolide]	–	<20%	–
CC(C)CCOC(=O)C=Cc1ccccc1 [ISOAMYL CINNAMATE]	10%	–	–
damascone beta [DAMASCONE, BETA]	99%	74%	Malodor reduction (%) propyl mercaptan [3]: 23%; Malodor reduction (%) allyl mercaptan [4]: 85%; Malodor reduction (%) furfuryl mercaptan [5]: 47%
CC(=O)/C=C/C1C(C)=CCCC1(C)C (stereo not drawn) [IONONE-ALPHA, ionone alpha]	14%	50%	Malodor reduction (%) propyl mercaptan [3]: <20%; Malodor reduction (%) allyl mercaptan [4]: 43%; Malodor reduction (%) furfuryl mercaptan [5]: 46%
CC1CCC(C(C)C)C(O)C1 (stereo not drawn) [MENTHOL NATURAL, menthol]	–	<20%	–
CC(C)c1ccc(C=O)cc1 [CUMIN ALD, cumin aldehyde]	–	–	methyl mercaptan suppression (%) A alone ([2]; Group A level 200 ppm): −42%
CC(C)=CCCC(C)C=O (stereo not drawn) [MELONAL]	–	<20%	–
CCCCCC1CCCC(=O)O1 (stereo not drawn) [DECALACTONE DELTA]	–	<20%	–
CCCCCC/C=C/C=O [NONENAL, TRANS-2,]	86%	–	–
ISO JASMONE	31%	–	–
OCCc1ccccc1 [PHENYL ETHYL ALCOHOL-BETA, phenethyl alcohol beta]	–	<20%	–
CCCCC/C=C/C=O [OCTENAL TRANS-2]	82%	–	–
CCCC/C=C/C=O [HEPTENAL-TRANS-2]	82%	–	–
O=C/C=C/c1ccccc1 [CINN ALD, cinnamic aldehyde]	33%	26%	Malodor reduction (%) propyl mercaptan [3]: 26%; Malodor reduction (%) allyl mercaptan [4]: <20%; Malodor reduction (%) furfuryl mercaptan [5]: 27%
